{
  "source": "patent US20130150317A1",
  "about": "“COMPOUNDS FOR THE TREATMENT OF RENAL CELL CARCINOMA” (Myrovlytis Technology Ventures Limited, priority 2010, published 2013)",
  "system": "UOK cells with/without FLCN expression",
  "assay": "Effect of low-concentration rapamycin on cell proliferation (preliminary data)",
  "details": "1 nmol/L rapamycin; data not shown",
  "data": [
    {"smiles": "CO[C@H]1C[C@@H]2CC[C@@H](C)[C@@](O)(O2)C(=O)C(=O)N2CCCC[C@H]2C(=O)O[C@H]([C@H](C)C[C@@H]2CC[C@@H](O)[C@H](OC)C2)CC(=O)[C@H](C)/C=C(\\C)[C@@H](O)[C@@H](OC)C(=O)[C@H](C)C[C@H](C)/C=C/C=C/C=C/1C", "note": "[rapamycin]", "values": [
      {"measurement": "reduction on cell proliferation", "value": "10%-15"}
    ]}
  ]
}
